Data: patent US20200338229A1, “ANTIMICROBIAL ADHESIVE DRESSINGS” (priority 2015, published 2020)
Like-named read-outs stand apart in the source and are kept apart here.

How the values were obtained:
[1] = in the silicone adhesive of this invention
[2] = cited from earlier work
[3] = in the presence of light; cited from earlier work

Which stability to autoclaving ([1]; autoclaving at 121° C.) does the source give for Polyhexamethylene biguanide [PHMB] here?
Its stability to autoclaving is “stable”.

What about the “stability to curing temperature” value ([1]; curing temperature of 140° C.) of the same substance?
Its value is “stable”.

What about the solubility ([2]; in oils and hydrocarbons and silicone elastomers) of the same substance?
Its solubility is “not soluble”.

And the solubility ([2]; in water, alcohols and glycols)?
Its solubility is “soluble”.

And the “pH range of stability” value [3]?
Its value is 4-10 pH.

What about the “temperature up to which stable” value [3] of the same substance?
Its value is “up to 80 °C”.
